In ChEMBL document CHEMBL5518165, “M335, a novel small-molecule STING agonist activates the immune response and exerts antitumor effects” (Eur J Med Chem, 2024):
The source made the active and inactive calls. The calls are words filed in the database; no cut-off is given here.

Assays:
[1] = target: Stimulator of interferon genes protein (Homo sapiens) (UniProt Q86WV6); assay: Agonist activity at STING in human THP-1 cells assessed as increase in LC3 protein level by Western blotting analysis; assay type: cell-based
[2] = target: Stimulator of interferon genes protein (Homo sapiens) (UniProt Q86WV6); assay: Agonist activity at STING in human THP-1 cells assessed as increase in TBK1 phosphorylation by Western blotting analysis; assay type: cell-based
[3] = target: Stimulator of interferon genes protein (Homo sapiens) (UniProt Q86WV6); assay: Agonist activity at STING in human THP-1 cells assessed as increase in IRF3 phosphorylation by Western blotting analysis; assay type: cell-based
[4] = target: T1, Stimulator of interferon genes protein (Mus musculus) (UniProt Q3TBT3); assay: Agonist activity at STING in MEF cells assessed as increase in STING oligomerization by Western blotting analysis; assay type: cell-based; details: filed as agonist
T1 sequence (whole entry): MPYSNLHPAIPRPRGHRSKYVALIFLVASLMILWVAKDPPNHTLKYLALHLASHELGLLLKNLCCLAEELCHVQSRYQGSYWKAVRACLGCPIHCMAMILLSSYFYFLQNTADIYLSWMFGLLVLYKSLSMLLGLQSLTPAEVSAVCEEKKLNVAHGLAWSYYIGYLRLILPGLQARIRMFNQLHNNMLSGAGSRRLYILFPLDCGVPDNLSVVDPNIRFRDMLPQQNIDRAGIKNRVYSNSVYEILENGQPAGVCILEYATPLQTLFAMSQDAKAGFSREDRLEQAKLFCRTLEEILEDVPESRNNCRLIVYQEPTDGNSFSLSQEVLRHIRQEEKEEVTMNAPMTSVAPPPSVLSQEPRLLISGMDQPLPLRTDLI

[5] = system: Human alphaherpesvirus 1; assay: Antiviral activity against HSV-1-GFP infected in human STING-deficient WT HeLa cells assessed as reduction in viral infection by fluorescent microscopy analysis; assay type: functional, organism-based
[6] = target: T1, Stimulator of interferon genes protein (Mus musculus); assay: Agonist activity at STING in MEF cells assessed as STING translocation to golgi apparatus by measuring increase in red fluorescence incubated for 1 hr by laser scanning confocal microscope analysis; assay type: cell-based; details: filed as agonist
[7] = target: T1, Stimulator of interferon genes protein (Mus musculus); assay: Agonist activity at STING in MEF cells assessed as nuclear transposition of phosphorylated IRF3 incubated for 1 hr by laser scanning confocal microscope analysis; assay type: cell-based; details: filed as agonist
[8] = target: T1, Stimulator of interferon genes protein (Mus musculus); assay: Agonist activity at STING in MEF cells assessed as STING translocation by measuring aggregation of green fluorescence incubated for 1 hr by laser scanning confocal microscope analysis; assay type: cell-based; details: filed as agonist

Chain of Stimulator of interferon genes protein (Homo sapiens) (Q86WV6 whole entry): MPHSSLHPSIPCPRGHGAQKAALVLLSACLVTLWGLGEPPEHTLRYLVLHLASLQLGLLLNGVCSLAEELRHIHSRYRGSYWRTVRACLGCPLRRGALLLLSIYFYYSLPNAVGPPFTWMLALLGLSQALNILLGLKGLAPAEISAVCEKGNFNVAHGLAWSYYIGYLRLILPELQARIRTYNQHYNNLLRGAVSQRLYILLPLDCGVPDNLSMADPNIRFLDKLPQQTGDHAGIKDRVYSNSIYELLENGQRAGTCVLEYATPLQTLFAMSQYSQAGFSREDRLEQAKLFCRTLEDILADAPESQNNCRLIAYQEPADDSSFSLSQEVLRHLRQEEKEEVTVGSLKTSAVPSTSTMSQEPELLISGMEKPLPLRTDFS

Compound	Activity [1]	Activity [2]	Activity [3]	Activity [4]	Activity [5]	Activity [6]	Activity [7]	Activity [8]
C[C@@H](NCCC(c1ccccc1)c1ccccc1)c1ccccc1	inactive	inactive	inactive					
C[C@H](NCCC(c1ccccc1)c1ccccc1)c1ccccc1	inactive	inactive	inactive					
Nc1nc2c(ncn2[C@@H]2O[C@@H]3COP(=O)(O)O[C@H]4[C@@H](O)[C@H](n5cnc6c(N)ncnc65)O[C@@H]4COP(=O)(O)O[C@@H]2[C@@H]3O)c(=O)[nH]1				Active	inactive	Active	Active	Active
CC(NC(=O)CC(c1ccccc1)c1ccccc1)c1ccccc1 (centres undefined)	inactive	inactive	inactive					
